Consider eight molecules from patent US9062071B2, “Substituted piperidines as HDM2 inhibitors” (Merck Sharp & Dohme Corp, priority 2011, dated 2015).

A word on the pIC50: it is the negative decadic logarithm of the IC50, by convention in mol/L.

This test addresses HDM2 protein (Homo sapiens, UniProt Q00987). Briefly: fluorescence polarization screening assay (FP IC50). Format: binding. As to conditions: class symbols. The protocol: The compounds were evaluated to determine activity at the HDM2 protein by known methods such as the fluorescence polarization screening assay that measures the inhibitory concentration that achieves 50% of maximal activity (FP IC50) and the dissociation constant for inhibitor binding (FP Ki). [Zhang et al., J. Analytical Biochemistry 331: 138-146 (2004)].

pIC50: −log10 of the molar value.

HDM2 protein, sequence (Q00987 whole entry): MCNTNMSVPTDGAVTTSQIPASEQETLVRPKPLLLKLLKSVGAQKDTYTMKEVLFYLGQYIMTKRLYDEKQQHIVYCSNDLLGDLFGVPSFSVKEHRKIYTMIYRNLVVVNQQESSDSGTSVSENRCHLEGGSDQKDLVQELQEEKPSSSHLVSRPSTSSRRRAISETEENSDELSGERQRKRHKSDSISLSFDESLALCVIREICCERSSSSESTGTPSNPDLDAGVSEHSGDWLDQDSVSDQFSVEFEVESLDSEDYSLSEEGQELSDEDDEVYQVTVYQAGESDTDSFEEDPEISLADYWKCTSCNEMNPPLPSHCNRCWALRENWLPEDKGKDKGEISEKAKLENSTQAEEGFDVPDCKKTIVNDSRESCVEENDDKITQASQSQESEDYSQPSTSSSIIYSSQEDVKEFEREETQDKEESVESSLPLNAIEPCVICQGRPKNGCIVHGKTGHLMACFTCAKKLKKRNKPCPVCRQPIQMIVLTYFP

In turn, `CCC[C@H]1N(C(=O)c2ncccc2C(F)(F)F)CCC[C@@]1(Oc1csc(C(F)(F)F)c1)C(=O)N1CCc2cc(Cl)ccc2C1CC(=O)O` (stereo partly drawn) [Compound A53, (6-chloro-2-{[(2R,3S)-2-propyl-1-{[3-(trifluoromethyl)pyridin-2-yl]carbonyl}-3-{[5-(trifluoromethyl)thiophen-3-yl]oxy}piperidin-3-yl]carbonyl}-1,2,3,4-. tetrahydroisoquinolin-1-yl)acetic acid] showed a pIC50 of 7.00 to 9.00.

With `CCC[C@H]1N(C(=O)c2ncccc2C(F)(F)F)CCC[C@@]1(Oc1csc(C(F)(F)F)c1)C(=O)N1CCc2cc(OC)ccc2C1` [Compound A47, 6-methoxy-2-{[(2R,3S)-2-propyl-1-{[3-(trifluoromethyl)pyridin-2-yl]carbonyl}-3-{[5-(trifluoromethyl)thiophen-3-yl]oxy}piperidin-3-yl]carbonyl}-1,2,3,4-tetrahydroisoquinoline], the negative logarithm of the IC50 (pIC50) is 4.70 to 7.00.

`CCC[C@H]1N(C(=O)c2ncccc2C(F)(F)F)CCC[C@@]1(Oc1csc(C(F)(F)F)c1)C(=O)N1CCc2cc(Cl)ccc2C1CC(=O)N1CCC(O)CC1` (stereo partly drawn) [Compound A82, 1-[(6-chloro-2-{[(2R,3S)-2-propyl-1-{[3-(trifluoromethyl)pyridin-2-yl]carbonyl}-3-{[5-(trifluoromethyl)thiophen-3-yl]oxy}piperidin-3-yl]carbonyl}-1,2,3,4-tetrahydroisoquinolin-1-yl)acetyl]piperidin-4-ol] showed a negative-log IC50 (pIC50) of 7.00 to 9.00.

The molecule `CCC[C@H]1N(C(=O)c2ncccc2C(F)(F)F)CCC[C@@]1(Oc1csc(C(F)(F)F)c1)C(=O)N1CCc2sc(Cl)cc2C1CCC(=O)NS(C)(=O)=O` (stereo partly drawn) [Compound A37, 3-(2-chloro-5-{[(2R,3S)-2-propyl-1-{[3-(trifluoromethyl)pyridin-2-yl]carbonyl}-3-{[5-(trifluoromethyl)thiophen-3-yl]oxy}piperidin-3-yl]carbonyl}-4,5,6,7-tetrahydrothieno[3,2-c]pyridin-4-yl)-N-(methylsulfonyl) propanamide] had a pIC50 of 7.00 to 9.00.

In turn, `CCC[C@H]1N(C(=O)c2ncccc2C(F)(F)F)CCC[C@@]1(Oc1csc(C(F)(F)F)c1)C(=O)N1CCc2ccc(C#N)cc2C1` [Compound A5, 2-{[(2R,3S)-2-propyl-1-{[3-(trifluoromethyl)pyridin-2-yl]carbonyl}-3-{[5-(trifluoromethyl)thiophen-3-yl]oxy}piperidin-3-yl]carbonyl}-1,2,3,4-tetrahydroisoquinoline-7-carbonitrile] gave a negative logarithm of the IC50 (pIC50) of 4.70 to 7.00.

Regarding `CCC[C@H]1N(C(=O)c2ncccc2C(F)(F)F)CCC[C@@]1(Oc1csc(C(F)(F)F)c1)C(=O)N1Cc2ccc(F)cc2C[C@H]1CN(C)C(=O)C(F)F` [Compound A159, 2,2-difluoro-N-{[(3S)-6-fluoro-2-{[(2R,3S)-2-propyl-1-{[3-(trifluoromethyl)pyridin-2-yl]carbonyl}-3-{[5-(trifluoromethyl)thiophen-3-yl]oxy}piperidin-3-yl]carbonyl}-1,2,3,4-tetrahydroisoquinolin-3-yl]methyl}-N-methylacetamide], the negative-log IC50 (pIC50) is 4.70 to 7.00.

In turn, `CCC[C@H]1N(C(=O)c2ncccc2C(F)(F)F)CCC[C@@]1(Oc1csc(C(F)(F)F)c1)C(=O)N1CCc2ccc(C(N)=O)cc2C1` [Compound A6, 2-{[(2R,3S)-2-propyl-1-{[3-(trifluoromethyl)pyridin-2-yl]carbonyl}-3-{[5-(trifluoromethyl)thiophen-3-yl]oxy}piperidin-3-yl]carbonyl}-1,2,3,4-tetrahydroisoquinoline-7-carboxamide] gave a negative-log IC50 (pIC50) of 4.70 to 7.00.

For the molecule `CCC[C@H]1N(C(=O)c2ncccc2C(F)(F)F)CCC[C@@]1(Oc1csc(C(F)(F)F)c1)C(=O)N1CCc2cc(Cl)ccc2C1CC(C)(C)C#N` (stereo partly drawn) [Compound A71, 3-(6-chloro-2-{[(2R,3S)-2-propyl-1-{[3-(trifluoromethyl)pyridin-2-yl]carbonyl}-3-{[5-(trifluoromethyl)thiophen-3-yl]oxy}piperidin-3-yl]carbonyl}-1,2,3,4-tetrahydroisoquinolin-1-yl)-2,2-dimethylpropanenitrile], the negative-log IC50 (pIC50) was 4.70 to 7.00.
